The test system of series [1] is E. coli. Nature of the series: Inhibition of tetrazolium dye reduction by E. coli. It counts as cell-based. The protocol: (§1) The other strains of bacteria, mixed in a buffer with various toxic chemicals, which were tested with the tetrazolium dye, gave varying results. Some bacteria reduced the dye, but the reduction was not inhibited appreciably by toxic chemicals. The absorbance of tetrazolium by Rhodobacter sphaeroides was not inhibited by copper. E. coli reduced the dye, but reduction was not inhibited by xylene. […] FIG. 1 is a graph showing data comparing the absorbance of the bacteria R. meliloti and E. coli at A590 varying between 0.0 and 0.3 in reacting with different toxins.

Series [2] deals with R. meliloti. Nature of the series: microbe, parasite or virus in culture. It counts as cell-based. The following applies: for sensitivity of Rhizobium/Tetrazolium assay compared with Microtox assay: ratio of the inhibitory concentrations.
The conditions of series [3]: cited from earlier work.
Series [4] concerns R. meliloti. The following applies: cited from earlier work.
Series [5] concerns R. meliloti NSI. Nature of the series: Inhibition of growth of R. meliloti NSI. It counts as cell-based. The following applies: read-out: concentration inhibiting growth 50%. The protocol:
Typically, R. meliloti is grown in medium with 10-20 uM calcium. Magnesium sulfate, at 59.9 ppm, is 0.2435 mM. The medium MDM contains 0.6 mm Magnesium chloride; this is a concentration found in most defined media. […] CDM, the medium used in the experiments with the assay of the invention, is 0.81 mM with respect to magnesium.

In series [6] the test system is Rhodobacter sphaeroides. As to the kind of experiment: Inhibition of tetrazolium dye reduction by Rhodobacter sphaeroides. It counts as cell-based. The protocol:
as §1

Series [7] has as its system fish (trout fingerlings). The settings on record: Table 8, trout fingerlings; cited from earlier work.
The procedure of series [8]:
Solid phenol was dissolved in water and added to the reaction tubes.

Series [9] deals with B. megaterium. Format: cell-based.
The subject of series [10] is S. lactis. Format: cell-based.
The subject of series [11] is B. japonicum. Format: cell-based.
Series [12] concerns A. crystallopoites. Format: cell-based.
Series [13] deals with E. coli. Format: cell-based.
The test system of series [14] is R. sphaeroides. Format: cell-based.
Series [15] deals with R. meliloti. Format: cell-based.
In series [16] the test system is Ps fluorescens. Format: cell-based.
Series [17] has as its system R. leguminosarum. Format: cell-based.
The test system of series [18] is S. typhimurium. Format: cell-based.

≈ marks a conversion by molar mass, not a printed value. Where two headings read alike, the source gives them in different places.

Consider Xylene, for which, in series [1], the “inhibition of dye reduction” value was “not inhibited”. In addition, the “ppm (50% inhibition of reduction)” value in series [2] (Table 5, 10,000 ppm stock method) is reported as 151 ppm; in [2] (Table 5, QSAR method: aqueous phase assayed, hydrocarbon in water estimated by QSAR solubility model) it was 30.3 ppm; in [2] (Table 5, direct method), 476 ppm. In addition, the Rhizobium/Tetrazolium ppm in series [2] (Table 9) is on record as 146-452 ppm. Further, in series [2], the “sensitivity of Rhizobium/Tetrazolium assay compared with Microtox assay” value is on record as “at least an order of magnitude more sensitive than the Rhizobium/Tetrazolium assay”. The Microtox ppm entry in [3] (Table 9) was “.70-9.25 ppm”.
`N#CC(C#N)=NNc1ccc(OC(F)(F)F)cc1` [FCCP, carbonyl-cyanide p(triflouromethoxy)phenylhydrozone]: the IC50 result in series [2] was “only a few μl”; in series [2] (Sinorhizobium meliloti, read-out: average (ppm), concentration giving 50% inhibition of dye reduction) it was 0.114 µg/mL (≈ 0.000449 mM). For the same compound, the “inhibition of tetrazolium reduction compared with DNP” value in series [4] is listed as “at a much lower concentration than does DNP”.
`[Cl-].[Cl-].[Mg+2]` [MgCl2, Magnesium chloride]: the IC50 in [5] came out at 26.9 mM.
With `[Cu]` [Copper], the “effect on the reduction of the dye at very low concentrations” value in [2] (FIG. 10) is listed as “stimulates the reduction of the dye at very low concentrations”. Also, the “ppm (50% inhibition of dye reduction)” value in series [2] (Table 7, minerals) is given as 0.960 ppm. Further, the “Rhizobium/Tetrazolium IC50” value in series [2] (Table 8) is 0.240 ppm. Moreover, the “sensitivity of Rhizobium/Tetrazolium assay compared with Microtox assay” value in series [2] is reported as “at least an order of magnitude more sensitive for 4 compounds”. In addition, in series [6], the “inhibition of absorbance of tetrazolium” value is recorded as “not inhibited”. Besides, the “Microtox IC50” value in series [3] (Table 8) is on record as 24.96 ppm. For the same compound, the “Fish LD50 (50% death of the fish)” value in series [7] is listed as 0.1-10.7 ppm.
Turning to `ClC(Cl)(Cl)Cl` [Carbon tetrachloride], the miscibility in water entry in [8] was “very immiscible in water”. Further, in series [2] (Sinorhizobium meliloti, Table 4, organic compounds, read-out: average (ppm), concentration giving 50% inhibition of dye reduction), the IC50 came to 3530 µg/mL (≈ 22.9 mM).
In the case of `c1ccc(-c2nn(-c3ccccc3)[n+](-c3ccccc3)n2)cc1` [TTC, 2,3,5-triphenyltetrazolium chloride], the “absorbance of reduced dye” value in series [9] is 0.1; in series [10] it was 0.05; in series [11], 0.07; in [12], 0.09; in series [13], 0.14; in series [14] it was 0.12. Besides, the “absorbance of reduced dye” value in series [15] is recorded as 0.09; in series [16], 0.01; in series [17] it was 0; in series [18], 0.04.

These data come from patent publication US5792622A, “Assay for chemicals” (priority 1995, dated 1998).
